The values that follow come from PMC5283680 (ACS chemical biology, 2016).

Experiment [1] concerns Bacillus subtilis ATCC 6051. As to the kind of experiment: microbe, parasite or virus in culture. The experiment is classed as cell-based.
Another experiment has as its system various Streptococcus. Conditions: cited from earlier work.
In another experiment the test system is E. coli. To be noted: cited from earlier work.
Experiment [2] concerns Staphylococcus epidermidis ATCC 14990. Type of experiment: cell-based.
In experiment [3] the test system is Streptococcus salivarius ATCC 13419. Type of experiment: cell-based.
For experiment [4], the system named is Enterococcus durans ATCC 6056. The experiment is classed as cell-based.
Experiment [5] deals with Escherichia coli ATCC 10798. The experiment is classed as cell-based.
For experiment [6], the system named is four gram-positive bacteria. As to the kind of experiment: MIC assays, summary over the four gram-positive bacteria. Type of experiment: cell-based. Conditions: for MIC against the gram-positive bacteria studied: four gram-positive bacteria of Table 1.
A further experiment concerns gram-positive bacteria. To be noted: MIC assays; cited from earlier work.
Where [7] appears, read: Staphylococcus epidermidis ATCC 14990, homologues as TFA salts.
[8] abbreviates: Streptococcus salivarius ATCC 13419, homologues as TFA salts.
[9] abbreviates: Enterococcus durans ATCC 6056, homologues as TFA salts.
Where [10] appears, read: Bacillus subtilis ATCC 6051, homologues as TFA salts.

Values after ≈ are worked out from the molar mass of the structure shown. Read-outs that look alike come from different tables or passages of the source. Positions of bridges follow the written chain, without caps; N, C: chain ends. Non-standard residues stand in square brackets, D forms with d. Residues, ends and D or L forms follow the SMILES beside them. d(aIle) = CC[C@H](C)[C@@H](N)C(=O)O; dNMeF = CN[C@H](Cc1ccccc1)C(=O)O

Take `CN[C@H](CC(C)C)C(=O)N[C@H]1C(=O)N[C@@H](CC(N)=O)C(=O)N[C@H]2C(=O)N[C@H]3C(=O)N[C@H](C(=O)N[C@H](C(=O)O)c4cc(O)cc(O)c4-c4cc3ccc4O)[C@H](O)c3ccc(c(Cl)c3)Oc3cc2cc(c3O[C@@H]2O[C@H](CO)[C@@H](O)[C@H](O)[C@H]2O[C@H]2C[C@](C)(N)[C@H](O)[C@H](C)O2)Oc2ccc(cc2Cl)[C@H]1O` [vancomycin, reference compound]: in experiment [1] (Bacillus subtilis, ATCC6051), the MIC stood at 1 µg/mL (≈ 0.69 µM).

As for teixobactin, the figures for the MIC in the experiment with various Streptococcus and with E. coli were 0.02 to 0.15 µg/mL and 25 µg/mL, respectively.

For `CC[C@H](C)[C@H](NC(=O)[C@@H](Cc1ccccc1)NC)C(=O)N[C@@H](CO)C(=O)N[C@H](CCC(N)=O)C(=O)N[C@@H](C(=O)N[C@H](C(=O)N[C@@H](CO)C(=O)N[C@H]1C(=O)N[C@@H](C)C(=O)N[C@@H](CCCCN)C(=O)N[C@@H]([C@@H](C)CC)C(=O)O[C@H]1C)[C@@H](C)CC)[C@@H](C)CC` [Lys10-teixobactin] (H-[dNMeF]IS[dQ][d(aIle)]IS[dT]AKI; ester 8-C (inferred); N-terminus assumed), the MIC is on record as 0.25 µg/mL (≈ 0.206 µM) in [2] (ATCC 14990); 0.5 µg/mL (≈ 0.411 µM) in experiment [3] (ATCC 13419); 1 µg/mL (≈ 0.822 µM) in experiment [4] (ATCC 6056); 0.5 µg/mL (≈ 0.411 µM) in experiment [1] (ATCC 6051); >32 µg/mL in experiment [5]. In experiment [6] (gram-positive bacteria, relative to Arg10-teixobactin), the “MIC values, times lower than Arg10-teixobactin” value is recorded as 2–4 times.

Consider `CC[C@H](C)[C@H](NC(=O)[C@@H](Cc1ccccc1)NC)C(=O)N[C@@H](CO)C(=O)N[C@H](CCC(N)=O)C(=O)N[C@@H](C(=O)N[C@H](C(=O)N[C@@H](CO)C(=O)N[C@H]1C(=O)N[C@@H](C)C(=O)N[C@@H](CCCNC(=N)N)C(=O)N[C@@H]([C@@H](C)CC)C(=O)O[C@H]1C)[C@@H](C)CC)[C@@H](C)CC` [Arg10-teixobactin], for which the MIC in experiment [2] (ATCC 14990) is given as 1 µg/mL (≈ 0.804 µM); in [3] (ATCC 13419), 1 µg/mL (≈ 0.804 µM); in experiment [4] (ATCC 6056) it was 4 µg/mL (≈ 3.21 µM); in [1] (ATCC 6051), 2 µg/mL (≈ 1.61 µM); in [5], >32 µg/mL. Moreover, the “activity relative to teixobactin” value (in [6] (comparison of own MIC with original published values in related bacteria); with gram-positive bacteria) was “about an order of magnitude less active” throughout. For the same molecule, the “MIC against the gram-positive bacteria studied” value in [6] fell in the range of 1 to 4 µg/mL.

As to ent-Arg10-teixobactin, the MIC amounted to 2 µg/mL in experiment [2] (setting [7]), 1 µg/mL in experiment [3] (setting [8]), 4 µg/mL in [4] (setting [9]) and 2 µg/mL in [1] (setting [10]). In addition, the “activity relative to Arg10-teixobactin” value in [6] (gram-positive bacteria, MIC) is listed as “comparable activity”.

As for seco-Arg10-teixobactin, the MIC in experiment [2] (setting [7]), in experiment [3] (setting [8]), in experiment [4] (setting [9]) and in experiment [1] (setting [10]) was >32 µg/mL each time. Moreover, in [6], the “MIC against the gram-positive bacteria studied” value is on record as > 32 µg/mL.
